Entries after “also recorded” stand apart in the source; their conditions may differ.
Key:
Assay type in all cases: in vivo, mouse
Ndufs4(KO) mice [1] = test: Longitudinal assessment of neurological disease symptoms (clasping, ataxia, circling)
Protocol: Longitudinal assessments of neurological disease symptoms. Clasping, ataxia, and circling were assessed by visual scoring, as previously described. As disease progresses in the Ndufs4(KO) mice animals display intermittent/transient improvement of symptoms. […] For observational assessments, lab-wide quality control discussions occurred frequently to ensure consistency between technicians/researchers. Technicians contributed equally to each treatment group to minimize any potential bias between individuals.

Ndufs4(KO) mice [2] = test: Rotarod assay; conditions: latency to fall up to 10 min, 6 rpm
Protocol: Rotarod and rotarod seizures. Rotarod assays were performed using a Med Associates Inc. (Fairfax, VT) ENV-571M single lane rotarod with a black mat installed in the floor of the lane to reduce visibility of the bottom. Assays were performed by placing animals onto an already rotating rod and timing latency to fall, with a steady rotation speed set to 6 rpm (controlled by attached laptop and Med Associates software). The maximum time of each trial was 10 min, with the trial ending at that time if mice were still on the rotarod. For each assay, three trials were performed, with a minimum of 5 min between each assay. The best of the three trials was reported for the rotarod data. As detailed in the text and figure legends, rotarod was performed each 10 days of age from P30; mice in a given age group were the reported age +/−1 day.

[3] = test system: CNS lesions in Ndufs4(KO) mice; test: Brain immunological staining: brainstem and cerebellar CNS lesions; conditions: 300 mg/kg/day
Protocol: Brain immunological staining and microscopy. Brains were fixed for 48 hours in 10% formalin at 4° C. Following fixation, brains were moved to a cryoprotectant solution (30% sucrose, 1% DMSO, 100 μM glycine, 1×PBS, 0.45 μm filtered, pH 7.5), and stored for over 48 hours, until the fixed tissues sank to the bottom. Tissues were then placed in OCT media (Tissue-Tek OCT compound, Sakura 0004348-01), frozen in cryoblock holders on dry ice, and stored at −80° C. until sectioned for staining. Cryoblocks were cut at 50 μm thickness using a Leica CM30505 cryostat set at −40° C. Slices were moved to 1×PBS and stored at 4° C. until used for staining. Prior to staining, slices were mounted on slides and briefly dried to adhere.
Antibody staining was performed as follows: slides were first incubated in an antigen retrieval and permeabilization buffer (0.05% Triton X-100, 50 μM digitonin, 10 mM Tris-HCl, 1 mM EDTA, pH 9.0) at 60° C. overnight in a white-light LED illuminated box (to promote photobleaching of tissue autofluorescence). To reduce formaldehyde induced background fluorescence, slides were treated with sodium borohydride in ice cold PBS, added at 1 mg/mL immediately before incubation, on ice for 30 min, then moved to 10 mM glycine 1×PBS, pH 7.4, for 5 min at room temperature. Lipid background fluorescence was then blocked by incubating slides in 0.2 μm filtered Sudan Black B solution (5 mg/mL in 70% ethanol) overnight at room temperature. Slides were then rinsed twice, 5 min each, in 1×PBS. Excess fluid was wiped from the slide, and the tissue was circled using Liquid Blocker PAP pen (Fisher Scientific, NC9827128) to hold staining solutions. Slides were blocked for 15 min at room temperature in 1×PBS with 10% rabbit serum (Gibco, 16120-099) then stained overnight at 4° C. in a mixture of rabbit anti-IBA1-fluorochrome 635 conjugated (WAKO 013-26471) at 1:300, mouse anti-GFAP, Alexa555 conjugated (Cell Signaling, 3656S) at 1:300, and DAPI (Sigma, D9542) at 1 μg/mL. […]

[4] = test system: control and Ndufs4(KO) mice; test: Glucose tolerance test (GTT) and glucose induced lactate test; conditions: 2 g/kg glucose IP; pexidartinib 300 mg/kg/d in chow, IPI-549 100 mg/kg/d in chow, rapamycin (ABI-009) 8 mg/kg/d IP
From the text: Point-of-care glucose and lactate testing. Blood glucose and lactate measurements were collected using point-of-care meters (Prodigy Autocode® glucose meter, product #51850-3466188, Prodigy® Diabetes Care, LLC, Charlotte, NC; lactate assay meter, product #40828, Nova Biomedical, Waltham, MA) and the tail-prick method, as previously described (Stokes et al. Elife 2021; 10:e65400).
Glucose tolerance test (GTT) and glucose induced lactate test. Prior to performing the GTT, mice were fasted for 4 hours, from 10 AM-2 PM. The fasting duration was limited to 4 hours given the sensitivity of untreated Ndufs4(KO) animals to hypoglycemia and related sequelae (dysregulation of body temperature, hypoglycemia induced seizure, etc.). For the ABI-009 cohort, mice received their daily ABI-009 treatment at the start of this fasting period. At the end of the 4 hour fast, baseline blood glucose and lactate values were collecting using point-of-care meters and the tail-prick method. Mice were then injected by IP with 2 g/kg dextrose (10 microliters/gram body weight of 200 mg/mL glucose in 1×PBS, 0.2 micron sterile filtered) using an insulin syringe (31-gauge, 6 mm length, 3/10 cc, BD Veo Ultra-Fine needle). Glucose and lactate levels were measured using a minimally invasive tail-prick method at designated timepoints post-injection.

Ndufs4(KO) mice [5] = test: Isoflurane induced hyperlactemia assay; conditions: 0.4% isoflurane for 30 min, P50, 300 mg/kg/d
Protocol: Isoflurane induced hyperlactemia assays. All of these experiments were performed at P50. Mice were subject to normal daily monitoring (see survival studies) up until P50. At P50, baseline blood glucose, lactate, and […] (β-HB) levels were measured using point-of-care meters using the tail-prick method, as described. Mice were then immediately exposed to 0.4% isoflurane or carrier gas only (100% oxygen) for 30 min. At the 30 minutes, blood glucose, lactate, and β-HB were measured again.

## FC(F)(F)c1ccc(CNc2ccc(Cc3c[nH]c4ncc(Cl)cc34)cn2)cn1 [pexidartinib, 5-[(5-chloro-1H-pyrrolo[2,3-b]pyridin-3-yl)methyl]-N-[[6-(trifluoromethyl)pyridin-3-yl]methyl]pyridin-2-amine]
Ndufs4(KO) mice [1]; 200 mg/kg/day
  clasping, ataxia, circling endpoints compared with mTOR inhibition: roughly matched mTOR inhibition
Ndufs4(KO) mice [1]; 300 mg/kg/day
  clasping, ataxia, circling endpoints compared with mTOR inhibition: performed substantially better
Ndufs4(KO) mice [1]; 100, 200, and 300 mg/kg/day
  neurologic disease onset and severity as measured by clasping: affect neurologic disease onset and severity
Ndufs4(KO) mice [1]; Ndufs4(KO) mice vs untreated
  onset of symptoms: forelimb clasping, ataxia, and circling: dose-dependently delayed the onset and reduced overall incidence
Ndufs4(KO) mice [2]
  performance on rotarod assay: rescued performance; also recorded: dose-dependent effect
[3]
  gliosis (microgliosis and astrocytosis) at CNS lesion sites: completely prevented
[3]; immunohistochemistry
  brainstem CNS lesions: complete (as detected by immunohistochemistry) prevention
  cerebellar CNS lesions: complete (as detected by immunohistochemistry) prevention
[4]
  blood lactate spike in response to a glucose bolus: prevented this spike in blood lactate
Ndufs4(KO) mice [5]
  blood lactate spike after isoflurane exposure: fully suppressed this lactate spike

From patent publication US20230321063A1, “COMPOSITIONS AND METHODS TO REDUCE NEUROINFLAMMATION” (Seattle Children's Hospital d/b/a Seattle Children's …, priority 2020, published 2023)
